Data reported in paper PMC6952103, “Biochemical characterization of Ty1 retrotransposon protease” (PLoS ONE, 2020).
Several values for one entry are separate records, joined by “and”; a condition that tells them apart may be missing. Equal entries are not always repeated. Entries after “also recorded” stand apart in the source; their conditions may differ. Where two headings read alike, the source gives them in different places.

What was measured:
[1] = tested on: XMRV PR; details: cited from earlier work
From the text: (§1) Despite the fact that out of the tested inhibitors only acet ...

[2] = molecular target: T1, Ty1 PR-His6 (Saccharomyces cerevisiae, UniProt Q07793); experiment: Inhibition study of Ty1 PR-His6; format: biochemical; details: Ty1 PR-His6 (400–1600 nM), VPTIN*NVHTS 0.44 mM, inhibitor ≥100 nM final, DMSO, peptide buffer A, 2 h at 30°C
T1 construct: made in house; host or cells: E. coli BL21(DE3), pET11a Gag-PR-His6 (gift of J.F. Lawler); soluble fraction, Ni-chelate chromatography, autoprocessed
T1 sequence (Q07793 402-582 limits assumed): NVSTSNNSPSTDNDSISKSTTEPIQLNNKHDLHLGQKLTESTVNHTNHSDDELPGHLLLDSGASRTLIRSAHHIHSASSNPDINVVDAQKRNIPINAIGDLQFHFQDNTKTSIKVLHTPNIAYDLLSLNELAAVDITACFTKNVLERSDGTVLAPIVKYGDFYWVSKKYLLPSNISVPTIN
Protocol: Ty1 PR-His6 activity was measured in the presence of various HIV-1 protease inhibitors. […] To study effect of inhibitors on proteolytic activity, reaction mixtures contained 5 μl purified Ty1 PR-His6 (400–1600 nM), 10 μl peptide buffer A, 4.8 μl oligopeptide substrate (VPTIN*NVHTS, 0.44 mM), and 0.2 μl inhibitor. For screening, inhibitors were dissolved in DMSO to have ≥100 nM final concentration. DMSO solution containing no inhibitor was used as control. Reaction mixtures were incubated for 2 h at 30°C.

[3] = tested on: HIV-1 PR; details: cited from earlier work
From the text: For instance, the optimal pH of HFV protease is 6.6–6.8 [40] while that of HIV-1 PR is between 4 and 6 [41]. […] Higher sensitivity to urea implies lower dimer stability for Ty1 protease, the possible structural background of this difference is discussed later in the In silico structural analysi ... || (+ 1 further places)

[4] = molecular target: Copia transposon protease; details: ref [17]; cited from earlier work
From the text: as §1

[5] = molecular target: T1, Ty1 PR-His6; experiment: Oligopeptide-based proteolytic assay (HPLC), Ty1 PR-His6; format: biochemical; details: for cleavage (in words): Ty1 PR-His6, oligopeptide substrate 2 mg/ml stock, 2 up to 5 h
Protocol: (§2) The oligopeptides used in the proteolytic assays (Table 1A) were synthesized as previously described. Reaction mixtures contained 10 μl peptide buffer A (20 mM PIPES, 100 mM NaCl, 0.5% Nonidet P-40, 10% glycerol, 2 mM dithiotreitol (DTT), pH 7.0), 5 μl purified Ty1 PR-His6 (processed from Ty1 Gag-PR-His6) or Ty1 PR, and 5 μl oligopeptide substrate (2 mg/ml) dissolved in water. Reaction mixtures were incubated for the different experiments from 2 up to 5 h at 30°C. The reactions were stopped by the addition of 180 μl 1% trifluoroacetic acid (TFA).
(§3) The products were separated by an HPLC-based method using a 0–100% water-acetonitrile gradient in the presence of TFA on Merck Hitachi instrument. For enzyme kinetic measurements, VPTIN*NVHTS oligopeptide substrate (representing Ty1 PR/IN cleavage site) was used at 0.2–1.2 mM; Ty1 PR (400–1600 nM) was incubated with the substrate at 30 °C for 2 h, whereas Ty1 PR-His6 (500–1500 nM) was incubated for 2.5 h. Kinetic parameters (shown in Table 1A) were determined by fitting the data obtained at less than 20% substrate hydrolysis to the Michaelis-Menten equation using GraphPad Prism version 5.00 for Windows (GraphPad Software, La Jolla California USA, www.graphpad.com). Statistical significances were determined by GraphPad QuickCalcs (https://www.graphpad.com/quickcalcs/ttest2).
(§4) For investigation of optimal conditions for enzyme folding, Ty1 PR was dialyzed against various buffers and buffer combinations that have been shown previously to be suitable for retroviral protease activity. In peptide-based assays, both protease and oligopeptide solutions were added to the buffer, and the reaction mixtures were incubated at 30°C, and stopped by the addition TFA. The mixtures were then injected onto a reversed-phase chromatography column in order to separate substrates and cleavage products, the substrate turnover was determined by integration of peak areas.

[6] = tested on: HFV PR; details: ref [40], cited from earlier work; for kcat/Km: buffer optimized for that protease
From the text: Similarly low catalytic activities were also observed previously for HFV and the Gag-encoded Avian myeloblastosis virus (AMV) proteases. Both the untagged, and the His6-tagged (self-processed) PRs cleaved th ...

[7] = molecular target: T2, Ty1 PR (Saccharomyces cerevisiae, UniProt Q07793); experiment: Oligopeptide-based proteolytic assay (HPLC), untagged Ty1 PR; format: biochemical; details: peptide buffer A pH 7.0, 30 °C; for cleavage (in words): Ty1 PR, oligopeptide substrate 2 mg/ml stock, 2 up to 5 h
T2 construct: the protease domain of Ty1 is unusually long, consisting of 181 residues; made in house; host or cells: E. coli BL21(DE3), pET11a
T2 sequence (Q07793 402-582 limits assumed): T1 sequence (Q07793 402-582 limits assumed)
Protocol: as §2, §3, §4

[8] = tested on: Copia transposon protease; details: ref [17], cited from earlier work
Protocol: The dependence of enzyme activity on ionic strength was studied, and highest activities were measured at 1.5–2 M NaCl concentration (Fig 4A). […] For instance, the optimal pH of HFV protease is 6.6–6.8 [40] while that of HIV-1 PR is between 4 and 6 [41].

[9] = peptide buffer A pH 7.0, 30 °C, HPLC
[10] = Ty1 PR-His6 (500–1500 nM), substrate 0.2–1.2 mM, peptide buffer A pH 7.0, 30 °C, 2.5 h, HPLC, SD (n≥2)
[11] = Ty1 PR (400–1600 nM), substrate 0.2–1.2 mM, 2 h, SD (n≥2)

Cc1cccc(C)c1OCC(=O)N[C@@H](Cc1ccccc1)[C@@H](O)C[C@H](Cc1ccccc1)NC(=O)[C@H](C(C)C)N1CCCNC1=O [lopinavir]
inhibition (in words) ([1]; ref [45]): able to inhibit | inhibition of proteolytic activity (in words) [2]: unable to inhibit

Cc1c(O)cccc1C(=O)N[C@@H](CSc1ccccc1)[C@H](O)CN1C[C@H]2CCCC[C@H]2C[C@H]1C(=O)NC(C)(C)C [nelfinavir]
inhibition of proteolytic activity (in words) [2]: unable to inhibit

CC(C)CN(C[C@@H](O)[C@H](Cc1ccccc1)NC(=O)O[C@H]1CO[C@H]2OCC[C@H]21)S(=O)(=O)c1ccc(N)cc1 [darunavir]
inhibition (in words) ([1]; ref [45]): able to inhibit | inhibition of proteolytic activity (in words) [2]: unable to inhibit

T26S mutant HIV-1 protease
specific activity compared to wild-type (in words) ([3]; T26S mutant, ref [49]): lower specific activity

CC(C)CN(C[C@@H](O)[C@H](Cc1ccccc1)NC(=O)O[C@H]1CCOC1)S(=O)(=O)c1ccc(N)cc1 [amprenavir]
inhibition (in words) ([1]; ref [45]): able to inhibit | inhibition of proteolytic activity (in words) [2]: unable to inhibit

pepstatin A
inhibition (in words) ([1]; ref [29]): weak inhibitors | Ki [4]: 15 nM | inhibition of proteolytic activity (in words) [2]: no inhibitory potential; also recorded: unable for the inhibition

HIV-1 PR: human immunodeficiency virus type 1 protease
activity at 37°C (in words) ([3]; HIV-1 PR, 37°C, ref [41]): highly active | UC50 (urea) ([3]; HIV-1 PR, ref [29]): 1.47 M

IHLIA*AVKAV [synthetic oligopeptide substrate representing the IN/RT cleavage site of Ty1]
cleavage (in words) [5, 9]: no cleavage was observed | kcat/Km [6]: 2 ± 0.4 M⁻¹ s⁻¹ | Km [6]: 1000 ± 160 µM | kcat [6]: 0.0020 ± 0.0002 s⁻¹ | cleavage (in words) [7]: no cleavage was observed

CCC[C@@]1(CCc2ccccc2)CC(O)=C([C@H](CC)c2cccc(NS(=O)(=O)c3ccc(C(F)(F)F)cn3)c2)C(=O)O1 [tipranavir]
inhibition (in words) ([1]; ref [45]): able to inhibit | inhibition of proteolytic activity (in words) [2]: unable to inhibit

VPTIN*NVHTS [synthetic oligopeptide substrate representing the PR/IN cleavage site of Ty1]
Km [5, 10]: 250 ± 90 µM | kcat [5, 10]: 0.009 ± 0.001 s⁻¹ | kcat/Km [5, 10]: 36 ± 13.2 M⁻¹ s⁻¹ | cleavage (in words) [5, 9]: cleaved | difference of specificity constants between untagged Ty1 PR and Ty1 PR-His6 (in words) ([5]; Ty1 PR-His6 versus untagged Ty1 PR): not significant statistically | kcat/Km [6]: 7 M⁻¹ s⁻¹ and 7 ± 2.4 M⁻¹ s⁻¹ | Km [6]: 30 ± 10 µM | kcat [6]: 0.0002 ± 0.00003 s⁻¹ | Km [7, 11]: 210 ± 70 µM | kcat [7, 11]: 0.006 ± 0.001 s⁻¹ | kcat/Km [7, 11]: 28 ± 10.5 M⁻¹ s⁻¹ | cleavage (in words) [7]: cleaved

COC(=O)N[C@H](C(=O)N[C@@H](Cc1ccccc1)[C@@H](O)CN(Cc1ccc(-c2ccccn2)cc1)NC(=O)[C@@H](NC(=O)OC)C(C)(C)C)C(C)(C)C [atazanavir]
inhibition (in words) ([1]; ref [45]): able to inhibit | inhibition of proteolytic activity (in words) [2]: unable to inhibit

O=C1N(Cc2ccc(CO)cc2)[C@H](Cc2ccccc2)[C@H](O)[C@@H](O)[C@@H](Cc2ccccc2)N1Cc1ccc(CO)cc1 [DMP-323]
inhibition (in words) ([1]; ref [45]): able to inhibit | inhibition of proteolytic activity (in words) [2]: unable to inhibit

CC(C)(C)NC(=O)[C@@H]1C[C@@H]2CCCC[C@@H]2CN1C[C@@H](O)[C@H](Cc1ccccc1)NC(=O)[C@H](CC(N)=O)NC(=O)c1ccc2ccccc2n1 [saquinavir]
inhibition of proteolytic activity (in words) [2]: unable to inhibit

TARAH*NVSTS [synthetic oligopeptide substrate representing the Gag/PR cleavage site of Ty1]
cleavage (in words) [5, 9]: no cleavage was observed | hydrolysis (in words) [6]: not hydrolyzed | cleavage (in words) [7]: no cleavage was observed

B1: Copia transposon protease: Copia transposon protease of D. melanogaster (protein, UniProt P04146 271-1409, looked up)
Copia protease: IAFMVKEVNNTSVMDNCGFVLDSGASDHLINDESLYTDSVEVVPPLKIAVAKQGEFIYATKRGIVRLRNDHEITLEDVLFCKEAAGNLMSVKRLQEAGMSIEFDKSGVTISKNGLMVVKNSGMLNNVPVINFQAYSINAKHKNNFRLWHERFGHISDGKLLEIKRKNMFSDQSLLNNLELSCEICEPCLNGKQARLPFKQLKDKTHIKRPLFVVHSDVCGPITPVTLDDKNYFVIFVDQFTHYCVTYLIKYKSDVFSMFQDFVAKSEAHFNLKVVYLYIDNGREYLSNEMRQFCVKKGISYHLTVPHTPQLNGVSERMIRTITEKARTMVSGAKLDKSFWGEAVLTATYLINRIPSRALVDSSKTPYEMWHNKKPYLKHLRVFGATVYVHIKNKQGKFDDKSFKSIFVGYEPNGFKLWDAVNEKFIVARDVVVDETNMVNSRAVKFETVFLKDSKESENKNFPNDSRKIIQTEFPNESKECDNIQFLKDSKESENKNFPNDSRKIIQTEFPNESKECDNIQFLKDSKESNKYFLNESKKRKRDDHLNESKGSGNPNESRESETAEHLKEIGIDNPTKNDGIEIINRRSERLKTKPQISYNEEDNSLNKVVLNAHTIFNDVPNSFDEIQYRDDKSSWEEAINTELNAHKINNTWTITKRPENKNIVDSRWVFSVKYNELGNPIRYKARLVARGFTQKYQIDYEETFAPVARISSFRFILSLVIQYNLKVHQMDVKTAFLNGTLKEEIYMRLPQGISCNSDNVCKLNKAIYGLKQAARCWFEVFEQALKECEFVNSSVDRCIYILDKGNINENIYVLLYVDDVVIATGDMTRMNNFKRYLMEKFRMTDLNEIKHFIGIRIEMQEDKIYLSQSAYVKKILSKFNMENCNAVSTPLPSKINYELLNSDEDCNTPCRSLIGCLMYIMLCTRPDLTTAVNILSRYSSKNNSELWQNLKRVLRYLKGTIDMKLIFKKNLAFENKIIGYVDSDWAGSEIDRKSTTGYLFKMFDFNLICWNTKRQNSVAASSTEAEYMALFEAVREALWLKFLLTSINIKLENPIKIYEDNQGCISIANNPSCHKRAKHIDIKYHFAREQVQNNVICLEYIPTENQLADIFTKPLPAARFVELRDKLGLLQDDQSNAE
modifications: Copia protease
notes: Copia transposon protease of D. melanogaster
relative activity ([8]; 20–70°C temperature range): ≥ 50% | NaCl concentration of highest activity ([8]; Copia transposon protease): 2 M | pH at which synthetic substrate is cleaved most efficiently ([8]; Copia transposon protease): 4.0 | temperature of highest activity ([8]; Copia transposon protease): 70 °C
